The record followed here is publication PMC9445877, “Blockade of TMPRSS2-mediated priming of SARS-CoV-2 by lactoferricin” (Frontiers in Immunology, 2022).

One data set deals with Vero cells. Put plainly: Cytotoxicity assay in Vero cells (EZ4U). It is filed as cell-based, African green monkey. The conditions noted are these: 48 h, without virus, 20 and 40 µg/mL, DMEM/2% FCS, 3 experiments, 80% viability cut-off. The method, then:
Vero cells were seeded into 96-well flat-bottom plates (1×10^4 cells, 80 µl/well) in DMEM medium supplemented with 10% FCS, antibiotics, and non-essential amino acids. On the day of the assay, the medium was exchanged for the reduced serum supplemented DMEM (DMEM/2% FCS) with the peptides or a vehicle only at the designated concentration (100 µl/well). As a positive control, 30% DMSO in DMEM/2% FCS was used. Negative control cells were incubated in DMEM/2% FCS only. Two days (48 h) later, cell viability was assessed as we did previously ([52]) using the EZ4U cell proliferation and cytotoxicity assay substrate (Biomedica Immunoassays, Vienna, Austria).

The target of another data set is T1, TMPRSS2 (Homo sapiens, UniProt O15393).
T1 construct: TMPRSS2 (25 nM; recombinant protein produced in mammalian cells; #MBS1193731, MyBioSource, San Diego, CA); purchased MyBioSource, San Diego, CA #MBS1193731; host or cells: mammalian cells
Put plainly: In vitro proteolysis assay, TMPRSS2, fluorogenic substrate Boc-Gln-Ala-Arg-AMC. The settings on record: 37°C, Boc-Gln-Ala-Arg-AMC; for inhibition of proteolytic activity of TMPRSS2 (in words): Tris-HCl buffer. The class given is biochemical. The method, then: (§1) Figure 1 Effect of LF and the LF-derived peptides pLF1-pLF3 on the activity of serine proteases. Proteolytic activities of purified TMPRSS2 (A), plasmin (B), elastase (C), and trypsin (D) were measured with or without peptides pLF1, pLF2, pLF3, LF or the control peptide pCTR at 37°C in Tris-HCl buffer using the fluorogenic substrate Boc-Gln-Ala-Arg-AMC. The reaction was monitored using an ELISA reader for the indicated time intervals.
(§2) The proteolytic activities of plasmin (10 nM; from human plasma; #10602361001, Roche Diagnostics GmbH, Mannheim, Germany), trypsin (10 nM; from bovine pancreas; #T1005, Sigma-Aldrich, St. Louis, MO), elastase (20 nM; from porcine pancreas; #E1250, Sigma-Aldrich) and TMPRSS2 (25 nM; recombinant protein produced in mammalian cells; #MBS1193731, MyBioSource, San Diego, CA) were measured in a Nunc black fluorescence-based cell assay plate (Sigma-Aldrich) in Tris-HCl buffer (20 mM, pH 8.0, 150 mM NaCl). The proteases were incubated with or without inhibitory and control compounds at 37°C for 30 min, and then the fluorogenic substrate (Boc-Gln-Ala-Arg-AMC; 25 µM; #BML-P237, ENZO Life Sciences, Lörrach, Germany) was added. The reaction was measured using an ELISA plate reader (Synergy H1 BioTek microplate reader, Winooski, Vermont, U.S., or TECAN GENios, GMI, USA) under the excitation wavelength of 380 nm and the emission wavelength of 460 nm at the indicated time points.

The next data set addresses T2, plasmin (Homo sapiens, UniProt P00747).
T2 construct: purchased Roche Diagnostics GmbH, Mannheim, Germany #10602361001; host or cells: human plasma
The data set is described as follows: In vitro proteolysis assay, plasmin. It is filed as biochemical. The settings on record: 37°C; for inhibition of proteolytic activity of plasmin (in words): plasmin 10 nM, Tris-HCl buffer, Boc-Gln-Ala-Arg-AMC. On the procedure:
as §1, §2
Optionally ( Figure 1B , inset), purified active plasmin (10 mU/mL) was coated in PBS directly on a 96-well Falcon transparent plate for 2 h at 37°C. The wells were then blocked with 1% BSA, washed, and then incubated in PBS at 37°C with the chromogenic plasmin substrate S-2251 (0.8 mM, D-Val-Leu-Lys-pNA, CoaChrom Diagnostica). In this case, the absorbance change at 405 nm was monitored at different time points by using an ELISA plate reader (SpectraMax M5, Molecular Devices).

In data set [1] the test system is SARS-CoV-2 infection, Vero cells. The class given is cell-based, SARS-CoV-2 (African green monkey cells). The settings on record: n = 3.
The test system of the next data set is SARS-CoV-2. The class given is cell-based. The conditions noted are these: for SARS-CoV-2 infection of permissive cells (in words): summary statement.
Another data set relates to elastase. Put plainly: In vitro proteolysis assay, elastase. It is filed as biochemical, porcine. The settings on record: elastase 20 nM; 37°C, Tris-HCl buffer, Boc-Gln-Ala-Arg-AMC. The method, then: as §1
as §2, with “The proteases were incubated with or without inhibitory and control compounds at 37°C for 30 min, and then the fluorogenic substrate (Boc-Gln-Ala-Arg-AMC; 25 µM; #BML-P237, ENZO Life Sciences, Lörrach, Germany) was added.” left out

Data set [2] has as its system SARS-CoV-2 S protein cleavage by TMPRSS2. The data set is described as follows: SARS-CoV-2 S protein digestion assay with TMPRSS2 (immunoblot). It is filed as biochemical. The conditions noted are these: S protein 1 µg, TMPRSS2 25 nM, 120 min, 37°C, Tris-HCl 20 mM pH 7.5, 150 mM NaCl, n = 4.

“Also recorded” adds a separate entry of the source. Where two headings read alike, the source gives them in different places. Peptide text beside a SMILES is read from it.

T2 sequence (P00747 581-810 limits assumed): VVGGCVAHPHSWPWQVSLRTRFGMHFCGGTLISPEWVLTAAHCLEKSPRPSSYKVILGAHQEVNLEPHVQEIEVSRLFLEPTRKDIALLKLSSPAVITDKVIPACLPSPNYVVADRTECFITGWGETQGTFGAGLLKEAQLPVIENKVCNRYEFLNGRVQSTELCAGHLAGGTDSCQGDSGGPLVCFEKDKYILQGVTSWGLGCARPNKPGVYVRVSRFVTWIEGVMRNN
T2 sequence (P00747 97-580 limits assumed): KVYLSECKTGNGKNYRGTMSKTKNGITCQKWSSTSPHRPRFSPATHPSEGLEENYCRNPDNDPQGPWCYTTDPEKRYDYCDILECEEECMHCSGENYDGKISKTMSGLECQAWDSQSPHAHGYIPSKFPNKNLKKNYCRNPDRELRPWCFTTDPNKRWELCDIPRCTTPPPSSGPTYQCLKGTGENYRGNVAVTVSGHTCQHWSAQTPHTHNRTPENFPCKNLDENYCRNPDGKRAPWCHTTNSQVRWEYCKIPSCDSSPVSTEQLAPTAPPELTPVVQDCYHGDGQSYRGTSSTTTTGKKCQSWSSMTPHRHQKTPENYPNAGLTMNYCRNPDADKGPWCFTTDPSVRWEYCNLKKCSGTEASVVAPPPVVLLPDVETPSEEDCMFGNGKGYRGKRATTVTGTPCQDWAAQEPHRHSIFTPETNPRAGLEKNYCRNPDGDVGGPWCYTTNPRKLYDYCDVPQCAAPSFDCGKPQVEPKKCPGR
T1 sequence (O15393 256-492 limits assumed): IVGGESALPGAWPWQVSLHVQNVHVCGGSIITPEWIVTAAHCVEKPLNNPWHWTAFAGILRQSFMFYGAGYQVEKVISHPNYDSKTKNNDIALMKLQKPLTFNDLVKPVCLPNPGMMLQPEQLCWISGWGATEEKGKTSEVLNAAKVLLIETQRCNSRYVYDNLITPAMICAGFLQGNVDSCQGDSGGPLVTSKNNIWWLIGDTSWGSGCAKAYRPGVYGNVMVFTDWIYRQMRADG
T1 sequence (O15393 106-255 limits assumed): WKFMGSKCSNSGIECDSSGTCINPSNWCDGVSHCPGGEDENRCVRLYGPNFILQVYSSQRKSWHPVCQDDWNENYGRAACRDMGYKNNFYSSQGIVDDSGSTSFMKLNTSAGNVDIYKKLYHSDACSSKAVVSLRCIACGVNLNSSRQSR

As to `C[S+](C)[O-]` [30% DMSO], the “cytotoxicity, Vero cells (in words)” value in the data set on Vero cells is on record as “significantly (p***<0.0005) affected viability of Vero cells”.

Turning to `CC(C)[C@H](NC(=O)[C@H](C)NC(=O)[C@H](CS)NC(=O)[C@H](Cc1c[nH]c2ccccc12)NC(=O)[C@H](CCC(N)=O)NC(=O)[C@@H](NC(=O)[C@H](CO)NC(=O)[C@H](CCCNC(=N)N)NC(=O)[C@H](CCCNC(=N)N)NC(=O)[C@H](CCCNC(=N)N)NC(=O)CN)C(C)C)C(=O)N[C@@H](CO)C(=O)N[C@@H](CCC(N)=O)C(=O)N1CCC[C@H]1C(=O)N[C@@H](CCC(=O)O)C(=O)N[C@@H](C)C(=O)N[C@H](C(=O)N[C@@H](CCCCN)C(=O)N[C@@H](CS)C(=O)O)[C@@H](C)O` [pLF1] (H-GRRRSVQWCAVSQPEATKC-OH), the “maximum inhibition of TMPRSS2 (plateau)” value on TMPRSS2 (at 40 - 80 µg/mL) is ~ 40%. Also, on plasmin (Figure 1B inset: plasmin 10 mU/mL coated in PBS, chromogenic substrate S-2251 0.8 mM, PBS, absorbance 405 nm, relative IC50, 4PL fit, experiments at least three times, read-out: half-maximum inhibitory concentration (IC50), plasmin (converted)), the IC50 was 3.19 µM.

Regarding “GRRRRSVQWCAVSQPEATKCFQWQRNMRKVRGPPVSCIKRDSPIQCIQA [LFC, natural peptide of 49 amino acids from the N-terminus of human LF, produced by pepsin cleavage]”, the “inhibition of proteolytic activity of TMPRSS2 (in words)” value (“inhibition … of TMPRSS2 (in words)” below) on TMPRSS2 is on record as “inhibitory effect on TMPRSS2 comparable to that of pLF1”; on TMPRSS2 (listed as lactoferricin), “significantly inhibited”. Also, the “infection rate of replication-competent SARS-CoV-2 in Vero cells (in words)” value in data set [1] (80 µg/mL, pre-incubation approx. 1 h) is recorded as “reduced the infection rate”. For the same compound, the “inhibition of SARS-CoV-2 infection in Vero and Calu-3 cells” value in the data set on SARS-CoV-2 (Vero and Calu-3 cells, summary statement in Discussion) is on record as 40-50%. Besides, the “SARS-CoV-2 infection of permissive cells (in words)” value with SARS-CoV-2 is listed as “inhibits cell entry of SARS-CoV-2 through blocking TMPRSS2-mediated virus priming”; with SARS-CoV-2 (listed as lactoferricin) it was “significantly inhibited”.

On to “NFRTKSCPLELAKELKLCS [pCTR, negative control peptide, a scrambled variant of pLF3, reference compound]”, for which, on TMPRSS2, the “inhibition … of TMPRSS2 (in words)” value is listed as “neither full-length LF nor pCTR inhibited; also recorded: neither full-length LF nor other tested peptides derived from LF, nor the control peptide pCTR, significantly reduced”. On plasmin, the “inhibition of proteolytic activity of plasmin (in words)” value is “neither full-length LF nor a control peptide (pCTR), was able to inhibit; also recorded: neither full-length LF nor other tested peptides derived from LF, nor the control peptide pCTR, significantly reduced”. Moreover, the “inhibition of proteolytic activity of elastase (in words)” value in the data set with elastase was “neither full-length LF nor other tested peptides derived from LF, nor the control peptide pCTR, significantly reduced”. Besides, the “cleavage of SARS-CoV-2 S protein by TMPRSS2 (in words)” value in data set [2] is given as “no such effect was seen”. Also, the “inhibition of SARS-CoV-2 infection, Vero cells (in words)” value in data set [1] (pre-incubation 40-60 min) was “did not show any inhibitory potential”.

As for aprotinin [reference compound], at TMPRSS2, the “inhibition … of TMPRSS2 (in words)” value was “blunted the proteolytic activity of both proteases”. The “inhibition of proteolytic activity of plasmin (in words)” value at plasmin is listed as “blunted the proteolytic activity of both proteases”.
